The NIST ThermoML archive (doi:10.1021/je4003916)

Assay: refractive index (Na D-line) (dimensionless); xn = mol fraction of the nth substance listed
Conditions: 101 kPa, Liquid, Dipping refractometry (monochromatic)

C1CCOC1 [tetrahydrofuran] + CCCCO
refractive index
Conditions | x1 = 0.1001 | x1 = 0.2003 | x1 = 0.3 | x1 = 0.4003 | x1 = 0.5 | x1 = 0.6001 | x1 = 0.7003 | x1 = 0.8006 | x1 = 0.9002 | x1 = 1
288.15 K | 1.402 | 1.4028 | 1.4036 | 1.4043 | 1.4051 | 1.4059 | 1.4068 | 1.4077 | 1.4087 | 1.4096
293.15 K | 1.3999 | 1.4006 | 1.4013 | 1.4021 | 1.4028 | 1.4035 | 1.4044 | 1.4052 | 1.4061 | 1.407
298.15 K | 1.3978 | 1.3985 | 1.3991 | 1.3998 | 1.4004 | 1.4011 | 1.4019 | 1.4027 | 1.4035 | 1.4043
303.15 K | 1.3957 | 1.3963 | 1.3969 | 1.3974 | 1.398 | 1.3987 | 1.3994 | 1.4001 | 1.4009 | 1.4016
308.15 K | 1.3936 | 1.3941 | 1.3946 | 1.3951 | 1.3957 | 1.3962 | 1.3969 | 1.3975 | 1.3983 | 1.399
313.15 K | 1.3914 | 1.3919 | 1.3923 | 1.3928 | 1.3933 | 1.3938 | 1.3943 | 1.3949 | 1.3956 | 1.3963
318.15 K | 1.3893 | 1.3897 | 1.3901 | 1.3905 | 1.3909 | 1.3913 | 1.3918 | 1.3923 | 1.3929 | 1.3936
323.15 K | 1.3871 | 1.3874 | 1.3878 | 1.3881 | 1.3885 | 1.3888 | 1.3893 | 1.3897 | 1.3903 | 1.3909
